# Data published in patent publication US11633402B2, “RET inhibitor” (CHUGAI SEIYAKU KABUSHIKI KAISHA, priority 2012, dated 2023).
# What was measured:
# [1] = biological target: RET (Homo sapiens, UniProt P07949); details: high concentration (1,000 nM); Cancer Cell 19(5) 679-690, 2011; cited from earlier work
# [2] = tested on: cell lines expressing KIF5B-RET; details: J Clin Oncol 30, 2012, suppl; Abstract no: 7510; cited from earlier work
# [3] = tested on: KIF5B-RET-expressing cells; details: Nature Medicine 2012, 18, p. 378-381; cited from earlier work
# [4] = tested on: TT cells (RET C634W); test: Cell growth inhibitory activity against thyroid medullary cancer cell line TT (CellTiter-Glo); type: cell-based; details: Homo sapiens, 120 h, read-out: cell growth inhibition IC50 value, TT cells
# Experimental: Cell growth inhibitory activity was evaluated using a thyroid medullary cancer cell line TT (American Type Culture Collection) with a RET kinase active mutation (C634W).
# The TT cells were seeded into a 96-well plate at a concentration of 5,000 cells/well in F-12K Nutrient Mixture (Life Technologies Corporation) containing 10% FBS and cultured overnight at 37° C. in the presence of 5% CO2. […] Dimethyl sulfoxide was added as a negative control. After culture at 37° C. for 5 days in the presence of 5% CO2. a cell counting reagent CellTiter-Glo® Luminescent Cell Viability Assay was added thereto and stirred, followed by the measurement of luminescence intensity using a luminescence measurement apparatus Envision. The measurement value in a well supplemented with only a medium was defined as a cell viability of 0%, while the measurement value in a well supplemented with dimethyl sulfoxide was defined as a survival rate of 100%. […] The IC50 value was determined from the obtained values by the logistic regression method.
# [5] = tested on: LC-2/ad-implanted mouse models; test: Antitumor activity in xenograft mouse model harboring CCDC6-RET fusion gene; type: in vivo; details: SCID mice, oral once a day 20 mg/kg or 60 mg/kg for 14 days
# From the text: LC-2/ad was subcutaneously implanted to SCID mice and randomized after tumor size reached 200 to 350 mm^3. The administration of the compound was started on the day of randomization. The vehicles used for dissolving the compound were 0.02 N HCl, 10% dimethyl sulfoxide. 10% Cremophor EL, 15% PEG400 and 15% HPCD (2-hydroxypropyl-β-cyclodextrin) (indicated by final concentration).
# [6] = tested on: Ba/F3 KIF5B-RET cells; test: Cell growth inhibitory activity against KIF5B-RET-expressing Ba/F3 cells (CellTiter-Glo); type: cell-based; details: Mus musculus, BaF3, 48 h; read-out: cell growth inhibition IC50 value, Ba/F3 KIF5B-RET cells
# Experimental: An expression plasmid CS-GS104J-M67 (GeneCopoeia) containing KIF5B-RET variant 1 (gene in which a region from the N-terminus of KIF5B CDS to exon 15 was fused with a region from exon 12 of RET CDS to the C-terminus) (SEQ ID NO: 5) was transfected into mouse lymphocytes Ba/F3 (RIK FN Cell Bank) by electroporation. After transfection, the cells were cultured overnight in an RPMI-1640 medium (Sigma-Aldrich) containing 10% FBS (Bovogen Biologicals) and 1 ng/mL recombinant mouse IL-3 (R&D systems). Then, the culture supernatant was replaced with an RPMl-1640 medium containing 10% LBS. The cells were seeded into a 96-well plate by the limiting dilution method. Approximately 2 weeks later, the expression of phosphorylated RET in cells grown in the absence of IL-3 was detected by Western blotting. […]
# The Ba/F3 KIF5B-RET cells were seeded into a 96-well plate at a concentration of 2,500 cells/well in an RPMI-1640 medium containing 10% FBS. […] After culture at 37° C. for 2 days in the presence of 5% CO2, a cell counting reagent CellTiter-Glo® Luminescent Cell Viability Assay (Pronged Corporation) was added thereto and stirred, followed by the measurement of luminescence intensity using a luminescence measurement apparatus Envision (PerkinElmer). […] The IC50 value was determined from the obtained values by the logistic regression method.
# [7] = tested on: LC-2/ad cells (CCDC6-RET fusion gene); test: Cell growth inhibitory activity against non-small cell lung cancer cell line LC-2/ad (CellTiter-Glo); type: cell-based; details: Homo sapiens, 120 h, read-out: cell growth inhibition IC50 value, LC-2/ad cells
# Experimental: Cell growth inhibitory activity was evaluated using a non-small cell lung cancer cell line LC-tad (R1KEN, J Thorac Oncol. 2012 December, 7 (12), 1872-6) harboring CCDC6-RET fusion gene.
# The LC-2/ad cells were seeded into a 96-well plate at a concentration of 2,000 cells/well in a medium of a 1:1 mixture of RPMI-1640 and Ham containing 15% FBS and 25 mM HEPES and cultured overnight at 37° C. in the presence of 5% CO2. […] Dimethyl sulfoxide was added as a negative control. After culture at 37° C. for 5 days in the presence of 5% CO2, a cell counting reagent CellTiter-Glo® Luminescent Cell Viability Assay was added thereto and stirred, followed by the measurement of luminescence intensity using a luminescence measurement apparatus Envision. The measurement value in a well supplemented with only a medium was defined as a cell viability of 0%, while the measurement value in a well supplemented with dimethyl sulfoxide was defined as a cell viability of 100%. […] The IC50 value was determined from the obtained values by the logistic regression method.
# RET, sequence (P07949 29-1114): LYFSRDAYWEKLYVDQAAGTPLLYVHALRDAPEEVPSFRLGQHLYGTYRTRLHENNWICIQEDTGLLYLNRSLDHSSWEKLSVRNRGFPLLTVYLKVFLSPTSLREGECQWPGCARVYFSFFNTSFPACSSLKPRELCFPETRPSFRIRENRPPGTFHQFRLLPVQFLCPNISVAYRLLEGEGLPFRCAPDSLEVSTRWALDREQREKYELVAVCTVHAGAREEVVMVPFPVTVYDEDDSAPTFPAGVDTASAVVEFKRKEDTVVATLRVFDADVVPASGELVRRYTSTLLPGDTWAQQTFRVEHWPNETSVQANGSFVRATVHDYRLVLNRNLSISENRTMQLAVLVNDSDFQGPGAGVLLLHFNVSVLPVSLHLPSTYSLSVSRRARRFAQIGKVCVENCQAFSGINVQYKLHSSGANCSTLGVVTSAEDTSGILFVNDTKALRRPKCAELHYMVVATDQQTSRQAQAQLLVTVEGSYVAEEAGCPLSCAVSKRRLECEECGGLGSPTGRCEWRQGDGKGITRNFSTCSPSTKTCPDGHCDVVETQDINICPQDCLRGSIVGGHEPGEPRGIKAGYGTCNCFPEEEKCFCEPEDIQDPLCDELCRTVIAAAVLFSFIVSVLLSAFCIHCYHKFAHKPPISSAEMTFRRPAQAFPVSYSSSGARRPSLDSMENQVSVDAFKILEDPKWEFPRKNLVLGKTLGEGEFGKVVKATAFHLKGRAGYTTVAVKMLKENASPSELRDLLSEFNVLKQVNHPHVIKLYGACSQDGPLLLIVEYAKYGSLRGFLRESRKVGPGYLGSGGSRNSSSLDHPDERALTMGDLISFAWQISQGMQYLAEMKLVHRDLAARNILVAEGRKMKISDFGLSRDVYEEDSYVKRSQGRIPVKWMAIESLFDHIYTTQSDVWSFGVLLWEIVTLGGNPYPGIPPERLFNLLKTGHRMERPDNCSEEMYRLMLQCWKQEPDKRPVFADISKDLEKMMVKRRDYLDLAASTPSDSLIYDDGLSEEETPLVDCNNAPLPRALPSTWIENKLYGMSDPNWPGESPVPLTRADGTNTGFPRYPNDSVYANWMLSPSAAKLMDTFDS
smiles,measurement,setting,value
CCc1cc2c(cc1N1CCC(N3CCOCC3)CC1)C(C)(C)c1[nH]c3cc(C#N)ccc3c1C2=O [drawing 3],kinase inhibition in Ambit Kinase Screening test,[1],inhibits many kinases including RET
CNC(=O)c1cc(Oc2ccc(NC(=O)Nc3ccc(Cl)c(C(F)(F)F)c3)cc2)ccn1 [sorafenih],cell growth inhibitory effect against cell lines expressing KIF5B-RET,[2],cell growth inhibitory effect
COc1cc2nccc(Oc3ccc(NC(=O)C4(C(=O)Nc5ccc(F)cc5)CC4)cc3)c2cc1OC [XL184],cell growth inhibitory effect against cell lines expressing KIF5B-RET,[2],cell growth inhibitory effect
C[C@@H](Oc1cc(-c2cnn(C3CCNCC3)c2)cnc1N)c1c(Cl)ccc(F)c1Cl [crizotinih],cell growth inhibitory activity against KIF5B-RET-expressing cells,[3],no cell growth inhibitory activity
"CCc1cc2c(cc1N1CCC(N3CCOCC3)CC1)C(C)(C)c1[nH]c3cc(C#N)ccc3c1C2=O [compound 1, 9-ethyl-6,6-dimethyl-8-(4-morpholin-4-yl-piperidin-1-yl)-11-oxo-6,11-dihydro-5H-benzo[b]carbazole-3-carbonitrile]",IC50,[4],190 nM
same,antitumor activity (tumor growth),[5]; LC-2/ad subcutaneous,dose-dependent tumor growth inhibitory effect and tumor regression
same,body weight loss,[5],significant body weight loss of a mouse was not observed
same,IC50,[6],86 nM
same,IC50,[7],190 nM
